Source: PubChem BioAssay (NCI)
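Following 48 hours of exposure in 96-well plates, responses at five concentrations were used to interpolate endpoints linearly. At the TGI there is no net growth.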

Legend:
Assay in all cases: DTP human tumour cell line panel, 48 h
[1] = system: 786-0 renal
[2] = system: A498 renal
[3] = system: A549 NSCLC
[4] = system: ACHN renal
[5] = system: BT-549 breast
[6] = system: CAKI-1 renal
[7] = system: CCRF-CEM leukemia
[8] = system: COLO 205 colon
[9] = system: DU-145 prostate
[10] = system: EKVX NSCLC
[11] = system: HCC-2998 colon
[12] = system: HCT-116 colon
[13] = system: HCT-15 colon
[14] = system: HL-60(TB) leukemia
[15] = system: HOP-62 NSCLC
[16] = system: HS 578T breast
[17] = system: HT29 colon
[18] = system: IGROV1 ovarian
[19] = system: K-562 leukemia
[20] = system: KM12 colon
[21] = system: LOX IMVI melanoma
[22] = system: M14 melanoma
[23] = system: MALME-3M melanoma
[24] = system: MCF7 breast
[25] = system: MDA-MB-231 breast
[26] = system: MDA-MB-435
[27] = system: MDA-N
[28] = system: MOLT-4 leukemia
[29] = system: NCI-H226 lung
[30] = system: NCI-H23 lung
[31] = system: NCI-H460 lung
[32] = system: NCI-H522 lung
[33] = system: NCI/ADR-RES ovarian
[34] = system: OVCAR-3 ovarian
[35] = system: OVCAR-5 ovarian
[36] = system: OVCAR-8 ovarian
[37] = system: PC-3 prostate
[38] = system: RPMI-8226 leukemia
[39] = system: SF-268 CNS
[40] = system: SF-295 CNS
[41] = system: SF-539 CNS
[42] = system: SK-MEL-2 melanoma
[43] = system: SK-MEL-28 melanoma
[44] = system: SK-MEL-5 melanoma
[45] = system: SK-OV-3 ovarian
[46] = system: SN12C renal
[47] = system: SNB-19 CNS
[48] = system: SNB-75 CNS
[49] = system: SR leukemia
[50] = system: SW-620 colon
[51] = system: T-47D breast
[52] = system: TK-10 renal
[53] = system: U251 CNS
[54] = system: UACC-257 melanoma
[55] = system: UACC-62 melanoma
[56] = system: UO-31 renal
[57] = system: OVCAR-4 ovarian
[58] = system: RXF 393 renal

## O=C1OC2C=CCC1C2 (stereo unspecified)
[1]
  TGI: > 100 µM
[2]
  TGI: > 100 µM
[3]
  TGI: > 100 µM
[4]
  TGI: > 100 µM
[5]
  TGI: > 100 µM
[6]
  TGI: > 100 µM
[7]
  TGI: > 100 µM
[8]
  TGI: > 100 µM
[9]
  TGI: > 100 µM
[10]
  TGI: > 100 µM
[11]
  TGI: > 100 µM
[12]
  TGI: > 100 µM
[13]
  TGI: > 100 µM
[14]
  TGI: > 100 µM
[15]
  TGI: > 100 µM
[16]
  TGI: > 100 µM
[17]
  TGI: > 100 µM
[18]
  TGI: > 100 µM
[19]
  TGI: > 100 µM
[20]
  TGI: > 100 µM
[21]
  TGI: > 100 µM
[22]
  TGI: > 100 µM
[23]
  TGI: > 100 µM
[24]
  TGI: > 100 µM
[25]
  TGI: > 100 µM
[26]
  TGI: > 100 µM
[27]
  TGI: > 100 µM
[28]
  TGI: > 100 µM
[29]
  TGI: > 100 µM
[30]
  TGI: > 100 µM
[31]
  TGI: > 100 µM
[32]
  TGI: > 100 µM
[33]
  TGI: > 100 µM
[34]
  TGI: > 100 µM
[35]
  TGI: > 100 µM
[36]
  TGI: > 100 µM
[37]
  TGI: > 100 µM
[38]
  TGI: > 100 µM
[39]
  TGI: > 100 µM
[40]
  TGI: > 100 µM
[41]
  TGI: > 100 µM
[42]
  TGI: > 100 µM
[43]
  TGI: > 100 µM
[44]
  TGI: > 100 µM
[45]
  TGI: > 100 µM
[46]
  TGI: > 100 µM
[47]
  TGI: > 100 µM
[48]
  TGI: > 100 µM
[49]
  TGI: > 100 µM
[50]
  TGI: > 100 µM
[51]
  TGI: > 100 µM
[52]
  TGI: > 100 µM
[53]
  TGI: > 100 µM
[54]
  TGI: > 100 µM
[55]
  TGI: > 100 µM
[56]
  TGI: > 100 µM

## CCCCNC(=O)c1cc(S(=O)(=O)n2cc[nH]c2=O)c(SC)cc1Cl
[1]
  TGI: > 100 µM
[2]
  TGI: 97 µM
[3]
  TGI: > 100 µM
[4]
  TGI: > 100 µM
[5]
  TGI: > 100 µM
[6]
  TGI: > 100 µM
[7]
  TGI: > 100 µM
[8]
  TGI: > 100 µM
[9]
  TGI: > 100 µM
[10]
  TGI: > 100 µM
[11]
  TGI: > 100 µM
[12]
  TGI: > 100 µM
[13]
  TGI: > 100 µM
[14]
  TGI: > 100 µM
[15]
  TGI: > 100 µM
[16]
  TGI: > 100 µM
[17]
  TGI: > 100 µM
[18]
  TGI: > 100 µM
[19]
  TGI: > 100 µM
[20]
  TGI: > 100 µM
[21]
  TGI: > 100 µM
[22]
  TGI: > 100 µM
[23]
  TGI: > 100 µM
[24]
  TGI: > 100 µM
[25]
  TGI: > 100 µM
[26]
  TGI: > 100 µM
[27]
  TGI: > 100 µM
[28]
  TGI: > 100 µM
[30]
  TGI: > 100 µM
[31]
  TGI: > 100 µM
[32]
  TGI: > 100 µM
[33]
  TGI: > 100 µM
[34]
  TGI: > 100 µM
[57]
  TGI: > 100 µM
[35]
  TGI: > 100 µM
[36]
  TGI: > 100 µM
[37]
  TGI: > 100 µM
[38]
  TGI: > 100 µM
[58]
  TGI: > 100 µM
[40]
  TGI: > 100 µM
[41]
  TGI: > 100 µM
[42]
  TGI: > 100 µM
[43]
  TGI: > 100 µM
[44]
  TGI: > 100 µM
[45]
  TGI: > 100 µM
[46]
  TGI: > 100 µM
[47]
  TGI: > 100 µM
[49]
  TGI: > 100 µM
[50]
  TGI: > 100 µM
[51]
  TGI: > 100 µM
[52]
  TGI: > 100 µM
[53]
  TGI: > 100 µM
[54]
  TGI: > 100 µM
[55]
  TGI: > 100 µM
[56]
  TGI: > 100 µM
